{"source": "patent US4952408A", "about": "“Liposome-encapsulated vinca alkaloids and their use in combatting tumors” (priority 1988, dated 1990)", "key": {"[1]": {"test": "plasma pharmacokinetics of free and liposomal vincristine (radioimmunoassay)", "format": "in vivo, CD2 F1 mice", "protocol": "(§1) CD2 F1 mice were administered vincristine as a free drug at a dose of 1 mg kg^-1 and liposomal entrapped vincristine at a dose of 1 mg kg^-1 and 5 mg kg^-1 via a lateral tail vein. At sequential time points, four mice in each treatment group were sacrificed and specific tissues were isolated and assayed for drug levels by radioimmunoassay as adapted in our laboratories."}, "[2]": {"test": "tissue drug levels of free and liposomal vincristine (radioimmunoassay)", "format": "in vivo, CD2 F1 mice", "conditions": "for concentration at 5 min / concentration at 0.25 h / concentration at 0.5 h / concentration at 1 h / concentration at 2 h / concentration at 4 h / concentration at 8 h / concentration at 24 h: mouse, iv, 1 mg/kg; for concentration at 0.25 h: 15'; for concentration at 0.5 h: 30'", "protocol": "as §1"}, "L1210 Leukemia cells": {"test_system": "L1210 Leukemia cells", "test": "in vitro cytotoxicity against L1210 leukemia cells (trypan blue exclusion)", "format": "cell-based", "conditions": "Mus musculus; L1210 murine leukemia cells; 24 h treatment at 37° C., counted at 48 and 72 hours", "protocol": "L1210 Leukemia cells were grown in suspension in air with 5% CO2 in RPMI Medium 1640 supplemented with 10% fetal calf serum and gentamicin (50 μg/ml). Log phase cells (10 ml) at an innoculum of 1×10^5 cells/ml of medium in 25 cm^2 plastic flasks were treated with either free vincristine or liposomal entrapped vincristine at different doses for 24 hours at 37° C. After drug treatment, cells were transferred to Falcon tubes and centrifuged for 10 minutes at 600 rpm. The supernatant media were discarded and the cell pellet was washed 3 times with RPMI Media 1640. The final cell pellet was resuspended in 10 ml of RPMI media and transferred to 25 cm^2 plastic flasks and incubated at 37° C. in air with 5% CO2 for growth. At 48 and 72 hours, an aliquot of cells from each flask were taken and were counted for viability by trypan blue exclusion under microscope. The number of cells proliferating in each flask were determined with respect to control. FIG. 3 represents the percent survival of cells when treated with free vincristine or vincristine entrapped in liposomes."}, "L1210 Leukemia": {"test_system": "L1210 Leukemia", "test": "antitumor evaluation against L1210 leukemia in mice", "format": "in vivo, CD2 F1 mice", "conditions": "for % ILS (percentage of increase in life span) / Long Term Survivors (50 days) / Median Survival: single dose", "protocol": "The L1210 leukemia was maintained by serial passage i.p. in DBA/2F1 female mice. For antitumor studies, 2×10^5 cells of L1210 leukemia were implanted i.p. in CD2 F1 male mice (22-25 g). […] Each drug treated group and saline treated leukemic control group was composed of eight mice. […] Data are expressed as % of ILS (percentage of increase in life span). Median life spans were calculated from grouped median survival times and % of increase in life was calculated as: [formula] Experiments were terminated on day 50. Mice alive on that day were termed \"cures\" and were included in the calculation of median survival time of treated mice. The saline treated or blank liposomes treated controls had the median survival of 11 days. Free vincristine at a dose of 2 mg kg^-1 provided a median survival of 14.5 days with a % ILS of 32 with 2/8 long-term survivals. […] In contrast, the doses of vincristine entrapped in liposomes provided a much higher therapeutic response in mice bearing L1210 leukemia. […] In addition, higher doses of vincristine administered in liposomes produced significant therapeutic response with majority of leukemia bearing mice surviving at day 50.\nCD2 F1 mice were implanted intraperitoneally with 2 ×\n10^5 leukemia cells and drug treatment was given intravenously on day"}, "[3]": {"test": "lethal toxicity in normal mice after single i.v. injection", "format": "in vivo, CD2 F1 mice"}, "[4]": {"test_system": "non-Hodgkin's and Hodgkins lymphomas, acute lymphoblastic leukemia, Wilm's tumor, rhabdomyosarcoma, and neuroblastoma", "conditions": "in vivo; cited from earlier work"}, "[5]": {"conditions": "total doses in excess of 2 mg; cited from earlier work"}, "[6]": {"conditions": "brain, brain, 1.0 mg, read-out: vincristine level, brain"}, "[7]": {"conditions": "kidney, kidney, 1.0 mg, read-out: vincristine level, kidney"}, "[8]": {"conditions": "liver, liver, 1.0 mg, read-out: vincristine level, liver"}, "[9]": {"conditions": "lung, lung, 1.0 mg, read-out: vincristine level, lung"}, "[10]": {"conditions": "spleen, spleen, 1.0 mg, read-out: vincristine level, spleen"}}, "note": "Like-named read-outs stand apart in the source and are kept apart here.", "data": [{"smiles": "CC[C@]1(O)C[C@H]2CN(CCc3c([nH]c4ccccc34)[C@@](C(=O)OC)(c3cc4c(cc3OC)N(C=O)[C@H]3[C@@](O)(C(=O)OC)[C@H](OC(C)=O)[C@]5(CC)C=CCN6CC[C@]43[C@@H]65)C2)C1", "note": "[free vincristine, vincristine]", "values": [{"measurement": "apparent volume of distribution", "setting": "[1]; i.v.", "value": "apparent large volume of distribution"}, {"measurement": "clearance of drug from plasma", "setting": "[1]; i.v.", "value": "much faster clearance of drug from plasma"}, {"measurement": "concentration at 5 min", "setting": "[1]; mouse, iv, 1 mg/kg, plasma, 1.0 mg, 5', read-out: plasma level", "value": 630, "unit": "ng/mL"}, {"measurement": "concentration at 0.25 h", "setting": "[1]; mouse, iv, 1 mg/kg, plasma, 1.0 mg, 15', read-out: plasma level", "value": 600, "unit": "ng/mL"}, {"measurement": "concentration at 0.5 h", "setting": "[1]; mouse, iv, 1 mg/kg, plasma, 1.0 mg, 30', read-out: plasma level", "value": 200, "unit": "ng/mL"}, {"measurement": "concentration at 1 h", "setting": "[1]; mouse, iv, 1 mg/kg, plasma, 1.0 mg, 1h, read-out: plasma level", "value": 100, "unit": "ng/mL"}, {"measurement": "concentration at 2 h", "setting": "[1]; mouse, iv, 1 mg/kg, plasma, 1.0 mg, 2h, read-out: plasma level", "value": 50, "unit": "ng/mL"}, {"measurement": "Cmax at 5 min", "setting": "[1]; mouse, plasma, iv, 1 mg kg^-1 i.v., 5 minutes, read-out: peak plasma level at 5 minutes", "value": 620, "unit": "ng/mL"}, {"measurement": "levels of drug in brain, free compared with liposomal vincristine", "setting": "[2]; brain, 1 or 5 mg kg^-1 liposomal", "value": "higher than liposomal vincristine"}, {"measurement": "drug level in liver", "setting": "[2]; liver, 1 mg kg^-1, 8 hours", "value": "undetectable"}, {"measurement": "levels in lung, free compared with liposomal vincristine", "setting": "[2]; lung, 1 mg kg^-1, different periods", "value": "comparable"}, {"measurement": "concentration at 5 min", "setting": "[2]; [6]", "value": 28, "unit": "ng/g"}, {"measurement": "concentration at 0.25 h", "setting": "[2]; [6]", "value": 21, "unit": "ng/g"}, {"measurement": "concentration at 0.5 h", "setting": "[2]; [6]", "value": 20, "unit": "ng/g"}, {"measurement": "concentration at 1 h", "setting": "[2]; [6]", "value": 21, "unit": "ng/g"}, {"measurement": "concentration at 2 h", "setting": "[2]; brain, brain, 1.0 mg, 2h, read-out: vincristine level, brain", "value": 21, "unit": "ng/g"}, {"measurement": "concentration at 4 h", "setting": "[2]; [6]", "value": 29, "unit": "ng/g"}, {"measurement": "concentration at 8 h", "setting": "[2]; [6]", "value": 29, "unit": "ng/g"}, {"measurement": "concentration at 24 h", "setting": "[2]; [6]", "value": 19, "unit": "ng/g"}, {"measurement": "concentration at 5 min", "setting": "[2]; [7]", "value": 65, "unit": "ng/g"}, {"measurement": "concentration at 0.25 h", "setting": "[2]; [7]", "value": 64, "unit": "ng/g"}, {"measurement": "concentration at 0.5 h", "setting": "[2]; [7]", "value": 62, "unit": "ng/g"}, {"measurement": "concentration at 1 h", "setting": "[2]; [7]", "value": 47, "unit": "ng/g"}, {"measurement": "concentration at 2 h", "setting": "[2]; kidney, kidney, 1.0 mg, 2h, read-out: vincristine level, kidney", "value": 47, "unit": "ng/g"}, {"measurement": "concentration at 4 h", "setting": "[2]; [7]", "value": 20, "unit": "ng/g"}, {"measurement": "concentration at 8 h", "setting": "[2]; [7]", "value": 18, "unit": "ng/g"}, {"measurement": "concentration at 24 h", "setting": "[2]; [7]", "value": 2, "unit": "ng/g"}, {"measurement": "concentration at 2 h", "setting": "[2]; liver, liver, 1 mg kg^-1, 2 hours, read-out: drug level in liver", "value": 50, "unit": "ng/g"}, {"measurement": "concentration at 5 min", "setting": "[2]; [8]", "value": 200, "unit": "ng/g"}, {"measurement": "concentration at 0.25 h", "setting": "[2]; [8]", "value": 161, "unit": "ng/g"}, {"measurement": "concentration at 0.5 h", "setting": "[2]; [8]", "value": 121, "unit": "ng/g"}, {"measurement": "concentration at 1 h", "setting": "[2]; [8]", "value": 84, "unit": "ng/g"}, {"measurement": "concentration at 2 h", "setting": "[2]; liver, liver, 1.0 mg, 2h, read-out: vincristine level, liver", "value": 47, "unit": "ng/g"}, {"measurement": "concentration at 4 h", "setting": "[2]; [8]", "value": 10, "unit": "ng/g"}, {"measurement": "concentration at 5 min", "setting": "[2]; [9]", "value": 80, "unit": "ng/g"}, {"measurement": "concentration at 0.25 h", "setting": "[2]; [9]", "value": 78, "unit": "ng/g"}, {"measurement": "concentration at 0.5 h", "setting": "[2]; [9]", "value": 80, "unit": "ng/g"}, {"measurement": "concentration at 1 h", "setting": "[2]; [9]", "value": 75, "unit": "ng/g"}, {"measurement": "concentration at 2 h", "setting": "[2]; lung, lung, 1.0 mg, 2h, read-out: vincristine level, lung", "value": 77, "unit": "ng/g"}, {"measurement": "concentration at 4 h", "setting": "[2]; [9]", "value": 64, "unit": "ng/g"}, {"measurement": "concentration at 8 h", "setting": "[2]; [9]", "value": 58, "unit": "ng/g"}, {"measurement": "concentration at 24 h", "setting": "[2]; [9]", "value": 4, "unit": "ng/g"}, {"measurement": "concentration at 5 min", "setting": "[2]; [10]", "value": 83, "unit": "ng/g"}, {"measurement": "concentration at 0.25 h", "setting": "[2]; [10]", "value": 84, "unit": "ng/g"}, {"measurement": "concentration at 0.5 h", "setting": "[2]; [10]", "value": 72, "unit": "ng/g"}, {"measurement": "concentration at 1 h", "setting": "[2]; [10]", "value": 86, "unit": "ng/g"}, {"measurement": "concentration at 2 h", "setting": "[2]; spleen, spleen, 1.0 mg, 2h, read-out: vincristine level, spleen", "value": 112, "unit": "ng/g"}, {"measurement": "concentration at 4 h", "setting": "[2]; [10]", "value": 112, "unit": "ng/g"}, {"measurement": "concentration at 8 h", "setting": "[2]; [10]", "value": 61, "unit": "ng/g"}, {"measurement": "concentration at 24 h", "setting": "[2]; [10]", "value": 43, "unit": "ng/g"}, {"measurement": "IC50", "setting": "L1210 Leukemia cells", "value": 4, "unit": "ng/mL"}, {"measurement": "% ILS (percentage of increase in life span)", "setting": "L1210 Leukemia; 2.0 mg/kg i.v.", "value": 32, "unit": "%"}, {"measurement": "Long Term Survivors (50 days)", "setting": "L1210 Leukemia; 2.0 mg/kg i.v.", "value": "2/8"}, {"measurement": "Median Survival", "setting": "L1210 Leukemia; 2.0 mg/kg i.v.", "value": 14.5, "unit": "days"}, {"measurement": "death of tumor bearing mice (drug toxicity)", "setting": "L1210 Leukemia; 3 mg kg^-1 i.v.", "value": "All the animals in this group were dead by day 10"}, {"measurement": "% ILS (percentage of increase in life span)", "setting": "L1210 Leukemia; 3.0 mg/kg i.v.", "value": -32, "unit": "%"}, {"measurement": "Long Term Survivors (50 days)", "setting": "L1210 Leukemia; 3.0 mg/kg i.v.", "value": "0/8"}, {"measurement": "Median Survival", "setting": "L1210 Leukemia; 3.0 mg/kg i.v.", "value": 7.5, "unit": "days"}, {"measurement": "lethality", "setting": "[3]; 2 mg kg^-1 i.v., to day 60", "value": "without any lethality"}, {"measurement": "mortality at 192 h", "setting": "[3]; mouse, in vivo, iv, 3 mg kg^-1 i.v., read-out: mice dead by day 8", "value": 90, "unit": "%"}, {"measurement": "antitumor activity", "setting": "[4]", "value": "substantial activity"}, {"measurement": "neurotoxicity", "setting": "[5]", "value": "often associated with a progressive and disabling neurotoxicity"}]}]}
